Reference: US8008346B2, “Chemotherapeutic agents for inhibition of protein translation” (The Royal University for the Advancement of Learning/McGill …, priority 2006, dated 2011)
Numbered stars: 1 amine (or outer) side, 2 acyl side, 3 side chain; on linkers, the order of the positions; unused ones are H or OH. Bridge positions count the residues as written; N and C are the ends. Square brackets hold non-standard residues; d marks the D form. Peptide text beside a SMILES is read from it. I, II: the chains in the order shown. Actinocin(9to1) = Cc1c2oc3c(C)ccc(C(=O)[*:1])c3nc-2c(C(=O)[*:2])c(N)c1=O; NMeV = CN[C@H](C(=O)O)C(C)C; Sar = CNCC(=O)O

How the values were obtained:
4E-BP = test: Western blot of 4E-BP and S6K phosphorylation status in MEFs stimulated with insulin (± rapamycin); type: cell-based, murine
Protocol: (§1) FIG. 14. (A) Western blot analysis of 4E-BP and S6K phosphorylation status in MEFs (murine embryo fibroblasts) stimulated with insulin (±rapamycin). Antibodies to pan-4E-BP and eIF4E antibodies were used. The phosphorylation status of 4E-BP is evident by a shift to a slower mobility species (shift from α to γ species). […] (B) Clofoctol inhibits protein synthesis in cells. MEF cells were incubated for 45 minutes in the presence of increasing amounts of clofoctol in methionine-free culture media. S^35-methionine was then added to the cell culture and incubation continued for 15 minutes. The amount of S^35-methionine incorporated into newly synthesized proteins was detected by TCA precipitation of the cell lysate following by scintillation counting. Results are expressed relative to the incorporation in the presence of 0.5% DMSO.

MEF cells = test: S35-methionine incorporation (protein synthesis) in MEF cells; type: cell-based, murine; conditions: 45 min + 15 min labeling, relative to 0.5% DMSO
Protocol: as §1

[1] = test system: Lymphomas derived from Eμ-myc, Eμ-myc×Tsc2(−/+), or Bcl2/Eμ-myc mice; test: Growth/cytotoxicity in lymphoma cell lines in culture; type: cell-based
Source text: FIG. 15. Clofoctol Inhibits growth of tumor cell lines in culture. Lymphomas derived from Eμ-myc, Eμ-myc×Tsc2(−/+), or Bcl2/Eμ-myc mice were exposed to the indicated concentrations of Clofoctol and cytotoxicity monitored.

human tumor stem cell = conditions: in vitro; cited from earlier work
HeLa cells [2] = test: 3H-uridine incorporation (RNA synthesis) in HeLa cells; type: cell-based; conditions: 50 μM, 60 min, normalized to DMSO, positive control, data not shown
Protocol: (§2) FIG. 4. Effect of hippuristanol on protein, RNA and DNA synthesis in cells. A. Relative rate of ^35S-methionine incorporation as a function of hippuristanol concentration in HeLa cells. Cells were exposed to the indicated concentration of compound for 50 min., followed by a 10 min. labeling period with ^35S-methionine in the presence of compound. The rate of protein synthesis (TCA precipitable cpm) obtained in the presence of compound was normalized to the rate obtained in the presence of DMSO (which was set at 1). The rate of protein synthesis in the control reactions (containing DMSO vehicle) averaged ˜700,000 cpm/10 min. labeling period. Results are shown for two experiments and the error of the mean is presented. The relative rate of ^35S-methionine incorporation in HeLa cells exposed to 10 μM anisomycin (positive control) for 60 min. was ˜0.02 (data not shown). B. Effect of hippuristanol on protein (gray circles), DNA (open squares), and RNA (solid squares) synthesis in HeLa cells. […] Gradients were analyzed by piercing the tube with a Brandel tube piercer, passing 60% sucrose through the bottom of the tube, and monitoring the absorbance of the material eluting from the tube using an ISCO UA-6 UV Detector.

HeLa cells [3] = test: 35S-methionine incorporation (protein synthesis) in HeLa cells; type: cell-based; conditions: HeLa cells, 10 μM, 60 min; normalized to DMSO (set at 1); positive control, data not shown
Protocol: FIG. 4. Effect of hippuristanol on protein, RNA and DNA synthesis in cells. A. Relative rate of ^35S-methionine incorporation as a function of hippuristanol concentration in HeLa cells. Cells were exposed to the indicated concentration of compound for 50 min., followed by a 10 min. labeling period with ^35S-methionine in the presence of compound. The rate of protein synthesis (TCA precipitable cpm) obtained in the presence of compound was normalized to the rate obtained in the presence of DMSO (which was set at 1). The rate of protein synthesis in the control reactions (containing DMSO vehicle) averaged ˜700,000 cpm/10 min. labeling period. Results are shown for two experiments and the error of the mean is presented. The relative rate of ^35S-methionine incorporation in HeLa cells exposed to 10 μM anisomycin (positive control) for 60 min. was ˜0.02 (data not shown). B. Effect of hippuristanol on protein (gray circles), DNA (open squares), and RNA (solid squares) synthesis in HeLa cells. The rate of macromolecular synthesis (TCA precipitable cpm for a 10 min. labeling period) obtained in the presence of 1 μM hippuristanol was normalized to the rate obtained in the presence of DMSO and is plotted. The results are shown for two experiments and the error of the mean is presented. The rate of protein, RNA and DNA synthesis in the control reactions (containing DMSO vehicle) averaged ˜900,000 cpm/10 min, ˜16,000 cpm/10 min. and 7,000 cpm/10 min labeling, respectively. The relative rate of ^35S-methionine incorporation by HeLa cells exposed to 10 μM anisomycin for 60 min. (positive control for inhibition of protein synthesis) was 0.02 (data not shown). The relative rate of ^3H-uridine incorporation by HeLa cells exposed to 50 μM actinomycin (positive control for inhibition of RNA synthesis) for 60 min. was 0.01 (data not shown). C. […] Gradients were analyzed by piercing the tube with a Brandel tube piercer, passing 60% sucrose through the bottom of the tube, and monitoring the absorbance of the material eluting from the tube using an ISCO UA-6 UV Detector.

HeLa cell polyribosomes = test: HeLa cell polyribosome profile on sucrose gradients; type: cell-based; conditions: 10 uM, 20 min
Protocol: as §2

[4] = test system: Akt-driven Eμ-myc lymphomas; test: Akt-driven Eμ-myc lymphoma model, combination with doxorubicin; type: in vivo, Mice; conditions: hippurin-1 5 mg/kg every day for 5 days, doxorubicin 10 mg/kg once on day 2 of 5
Protocol: FIG. 13. Efficacy of hippurin-1 on Akt-driven Eμ-myc lymphomas when administered in combination with doxorubicin. Mice bearing Akt-driven Eμ-myc lymphomas where injected with either doxorubicin (10 mg/kg once on day 2 of 5), hippurin-1 alone (5 mg/kg every day for 5 days) or hippurin-1 and doxorubicin (hippurin-1: 5 mg/kg every day for 5 days, doxorubicin: 10 mg/kg once on day 2 of 5). Tumor size was monitored by (A) palpation (blinded study) and (B) blood smears on days 1, 3 and 5 during the treatment to assess the size of the lymphomas and the number of leukemic cells, respectively.

murine leukemia cells = conditions: also in a number of human tumor xenografts; cited from earlier work

## CC(C)(C)CC(C)(C)c1ccc(O)c(Cc2ccc(Cl)cc2Cl)c1 [Clofoctol]
4E-BP; MEF cells, in the presence or absence of rapamycin
  phosphorylation status of 4E-BP: causes dephosphorylation of 4E-BP
4E-BP; MEFs, FIG. 14A lane 4 vs 3
  S6 phosphorylation in the presence of rapamycin: antagonizes rapamycin's block of S6 phosphorylation
MEF cells
  protein synthesis in cells: inhibits
[1]
  growth of tumor cell lines in culture: Inhibits

## CC[C@H](C)[C@H]1NC(=O)[C@@H](NC(=O)[C@@H](CC(C)C)N(C)C(=O)[C@@H]2CCCN2C(=O)C(C)O)[C@@H](C)OC(=O)[C@H](Cc2ccc(OC)cc2)N(C)C(=O)[C@@H]2CCCN2C(=O)[C@H](CC(C)C)NC(=O)[C@@H](C)C(=O)[C@H](C(C)C)OC(=O)C[C@@H]1O (stereo partly shown) [Didemnin B]
Human tumor stem cell
  concentrations inhibiting cell growth: 1 to 100 nM

## Cc1c2oc3c(C)ccc(C(=O)N[C@@H]4C(=O)N[C@H](C(C)C)C(=O)N5CCC[C@H]5C(=O)N(C)CC(=O)N(C)[C@@H](C(C)C)C(=O)O[C@@H]4C)c3nc-2c(C(=O)N[C@@H]2C(=O)N[C@H](C(C)C)C(=O)N3CCC[C@H]3C(=O)N(C)CC(=O)N(C)[C@@H](C(C)C)C(=O)O[C@@H]2C)c(N)c1=O [actinomycin] (I: T[dV]P[Sar][NMeV] / II: T[dV]P[Sar][NMeV]; ester I:1-I:C, II:1-II:C; linker I:N-II:N via Actinocin(9to1))
HeLa cells [2]
  relative rate of 3H-uridine incorporation: 0.01

## COc1ccc(C[C@H]2NC[C@H](O)[C@H]2OC(C)=O)cc1 [anisomycin, reference compound]
HeLa cells [3]
  relative rate of 35S-methionine incorporation: ~0.02
HeLa cell polyribosomes
  effect on HeLa cell polyribosomes: blocked elongation and caused an accumulation of ribosomes in polysomes

## CC(=O)O[C@@H]1C[C@@]2(C)[C@@H](CC[C@@H]3[C@@H]2[C@@H](O)C[C@@]2(C)[C@H]3C[C@@H]3O[C@@]4(C[C@H](C)C(C)(C)O4)[C@](C)(O)[C@@H]32)C[C@@H]1O [hippurin-1]
[4]
  adjuvant effect to doxorubicin in a mouse lymphoma model: can act as adjuvant

## dehydrodidemnin 6
Murine leukemia cells
  activity relative to didemnin B: ten times more active
